Experimental data as given in paper PMC11003488 (Journal of Enzyme Inhibition and Medicinal Chemistry, 2023).

Experiments:
HL-60(TB) = test: cells; assay type: cell-based; settings: Homo sapiens
HCT-116 = test: NCI-60 SRB growth inhibition, one-dose and five-dose; assay type: cell-based; settings: Homo sapiens
MCF7 = test: as above; assay type: cell-based; settings: Homo sapiens
LOX IMVI = test: as above; assay type: cell-based; settings: Homo sapiens
U251 = test: as above; assay type: cell-based; settings: Homo sapiens
BT-549 = test: as above; assay type: cell-based; settings: Homo sapiens
HOP-92 = test: as above; assay type: cell-based; settings: Homo sapiens
CCRF-CEM = test: as above; assay type: cell-based; settings: Homo sapiens
MDA-MB-435 = test: as above; assay type: cell-based; settings: Homo sapiens
MOLT-4 = test: as above; assay type: cell-based; settings: Homo sapiens
HCC-2998 = test: as above; assay type: cell-based; settings: Homo sapiens
COLO 205 = test: as above; assay type: cell-based; settings: Homo sapiens
DU-145 = test: as above; assay type: cell-based; settings: Homo sapiens
MALME-3M = test: as above; assay type: cell-based; settings: Homo sapiens
KM12 = test: as above; assay type: cell-based; settings: Homo sapiens
SK-MEL-5 = test: as above; assay type: cell-based; settings: Homo sapiens
HOP-62 = test: as above; assay type: cell-based; settings: Homo sapiens
[1] = tested on: NCI 60-cell line panel (full panel); test: NCI-60 SRB growth inhibition, full panel mean / MG-MID; assay type: cell-based, human
OVCAR-3 = test: NCI-60 SRB growth inhibition, one-dose and five-dose; assay type: cell-based; settings: Homo sapiens
HCT-15 = test: as above; assay type: cell-based; settings: Homo sapiens
CAKI-1 = test: as above; assay type: cell-based; settings: Homo sapiens
SNB-19 = test: as above; assay type: cell-based; settings: Homo sapiens
HS 578 T = test: as above; assay type: cell-based; settings: Homo sapiens
NCI-H226 = test: as above; assay type: cell-based; settings: Homo sapiens
OVCAR-4 = test: as above; assay type: cell-based; settings: Homo sapiens
NCI-H522 = test: as above; assay type: cell-based; settings: Homo sapiens
K-562 = test: as above; assay type: cell-based; settings: Homo sapiens
SF-268 = test: as above; assay type: cell-based; settings: Homo sapiens
A549/ATCC = test: as above; assay type: cell-based; settings: Homo sapiens
EKVX = test: as above; assay type: cell-based; settings: Homo sapiens
OVCAR-8 = test: as above; assay type: cell-based; settings: Homo sapiens, OVCAR-8, read-out: percent growth inhibition
SR = test: as above; assay type: cell-based; settings: Homo sapiens
T-47D = test: as above; assay type: cell-based; settings: Homo sapiens, T47D
RXF 393 = test: as above; assay type: cell-based; settings: Homo sapiens
IGROV1 = test: as above; assay type: cell-based; settings: Homo sapiens
SF-539 = test: as above; assay type: cell-based; settings: Homo sapiens
SK-MEL-2 = test: as above; assay type: cell-based; settings: Homo sapiens, SK-MEL-2, read-out: percent growth inhibition
MDA-MB-468 = test: as above; assay type: cell-based; settings: Homo sapiens
OVCAR-5 = test: as above; assay type: cell-based; settings: Homo sapiens
A498 = test: as above; assay type: cell-based; settings: Homo sapiens
PC-3 = test: as above; assay type: cell-based; settings: Homo sapiens
SK-MEL-28 = test: as above; assay type: cell-based; settings: Homo sapiens
[2] = read-out: percent growth inhibition

CC(=O)Nc1ccc(/C=C/C(=O)c2cccc(NCc3ccc(NC(C)=O)cc3)c2)cc1 [Compound 5g, (E)-N-(4–(3-(3-((4-acetamidobenzyl)amino)phenyl)-3-oxoprop-1-en-1-yl)phenyl) acetamide]
GI50 (HL-60(TB); HL-60): 7.08 µM
inhibition at 10 µM (HL-60(TB); HL-60, read-out: percent growth inhibition): 100%
GI50 (HCT-116; HCT-116, HCT-116, five-dose screening): 1.95 µM
inhibition at 10 µM (HCT-116; HCT-116, read-out: percent growth inhibition): 190%
GI50 (MCF7; MCF7): 2.88 µM
inhibition at 10 µM (MCF7; MCF7, read-out: percent growth inhibition): 107%
GI50 (LOX IMVI): 1.9 µM
inhibition at 10 µM (LOX IMVI; [2]): 191%
GI50 (U251; U-251): 3.2 µM
inhibition at 10 µM (U251; U-251, read-out: percent growth inhibition): 181%
GI50 (BT-549; BT-549): 10.4 µM
inhibition at 10 µM (BT-549; BT-549, read-out: percent growth inhibition): 63.7%
GI50 (HOP-92; HOP-92): 11.8 µM
inhibition at 10 µM (HOP-92; HOP-92, read-out: percent growth inhibition): 26.9%
GI50 (CCRF-CEM): 4.52 µM
inhibition at 10 µM (CCRF-CEM; [2]): 116%
GI50 (MDA-MB-435; MDA-MB-435): 10.3 µM
inhibition at 10 µM (MDA-MB-435; MDA-MB-435, read-out: percent growth inhibition): 39%
GI50 (MOLT-4; MOLT-4): 3.21 µM
inhibition at 10 µM (MOLT-4; MOLT-4, read-out: percent growth inhibition): 116%
GI50 (HCC-2998; HCC 2998): 14.8 µM
inhibition at 10 µM (HCC-2998; HCC 2998, read-out: percent growth inhibition): 137%
GI50 (COLO 205; COLO 205): 16 µM
inhibition at 10 µM (COLO 205; COLO 205, read-out: percent growth inhibition): 30.7%
GI50 (DU-145; DU-145): 11.8 µM
inhibition at 10 µM (DU-145; DU-145, read-out: percent growth inhibition): 61.7%
GI50 (MALME-3M): 7.11 µM
inhibition at 10 µM (MALME-3M; [2]): 57.5%
GI50 (KM12; KM12): 13.4 µM
inhibition at 10 µM (KM12; KM12, read-out: percent growth inhibition): 163%
GI50 (SK-MEL-5; SK-MEL-5): 12 µM
inhibition at 10 µM (SK-MEL-5; SK-MEL-5, read-out: percent growth inhibition): 99.6%
GI50 (HOP-62; HOP-62): 14.5 µM
inhibition at 10 µM (HOP-62; HOP-62, read-out: percent growth inhibition): 35.3%
GI50 ([1]; Homo sapiens, 60 cell, read-out: Full panel GI50 mean): 9.52 µM
Full panel Mean GI % ([1]; mean over NCI-60 panel, single dose 10 µM): 87.48%
GI50 (OVCAR-3; OVCAR-3): 6.09 µM
inhibition at 10 µM (OVCAR-3; OVCAR-3, read-out: percent growth inhibition): 118%
GI50 (HCT-15; HCT-15): 3.13 µM
inhibition at 10 µM (HCT-15; HCT-15, read-out: percent growth inhibition): 144%
GI50 (CAKI-1; CAKI-1): 12.2 µM
inhibition at 10 µM (CAKI-1; CAKI-1, read-out: percent growth inhibition): 54.9%
GI50 (SNB-19; SNB-19): 7 µM
inhibition at 10 µM (SNB-19; SNB-19, read-out: percent growth inhibition): 95.4%
GI50 (HS 578 T): 10.6 µM
inhibition at 10 µM (HS 578 T; [2]): 32%
GI50 (NCI-H226; NCI-H226): 12.9 µM
inhibition at 10 µM (NCI-H226; NCI-H226, read-out: percent growth inhibition): 126%
GI50 (OVCAR-4; OVCAR-4): 14 µM
inhibition at 10 µM (OVCAR-4; OVCAR-4, read-out: percent growth inhibition): 38.7%
GI50 (NCI-H522; NCI-H522): 6.54 µM
inhibition at 10 µM (NCI-H522; NCI-H522, read-out: percent growth inhibition): 159%
GI50 (K-562; K562): 2.93 µM
inhibition at 10 µM (K-562; K562, read-out: percent growth inhibition): 100%
GI50 (SF-268; SF-268): 18.4 µM
inhibition at 10 µM (SF-268; SF-268, read-out: percent growth inhibition): 78.7%
GI50 (A549/ATCC; A549): 15.8 µM
inhibition at 10 µM (A549/ATCC; A549, read-out: percent growth inhibition): 10.9%
GI50 (EKVX): 13.5 µM
inhibition at 10 µM (EKVX; [2]): 43.7%
inhibition at 10 µM (OVCAR-8): 129%
GI50 (SR): 2.43 µM
GI50 (T-47D): 7.77 µM
inhibition at 10 µM (T-47D; [2]): 46.4%
GI50 (RXF 393; RXF 393): 11.3 µM
inhibition at 10 µM (RXF 393; RXF 393, read-out: percent growth inhibition): 158%
GI50 (IGROV1; IGROV-1): 5.59 µM
inhibition at 10 µM (IGROV1; IGROV-1, read-out: percent growth inhibition): 56.3%
GI50 (SF-539; SF-539): 12.2 µM
inhibition at 10 µM (SF-539; SF-539, read-out: percent growth inhibition): 167%
inhibition at 10 µM (SK-MEL-2): 28.3%
GI50 (MDA-MB-468; MDA-MB-468): 10 µM
inhibition at 10 µM (MDA-MB-468; MDA-MB-468, read-out: percent growth inhibition): 68.2%
GI50 (OVCAR-5; OVCAR-5): 12.3 µM
inhibition at 10 µM (OVCAR-5; OVCAR-5, read-out: percent growth inhibition): 45.2%
GI50 (A498; A498): 14.2 µM
inhibition at 10 µM (A498; A498, read-out: percent growth inhibition): 16.6%
GI50 (PC-3; PC-3): 11.6 µM
inhibition at 10 µM (PC-3; PC-3, read-out: percent growth inhibition): 54.8%
GI50 (SK-MEL-28; SK-MEL-28): 12.7 µM
inhibition at 10 µM (SK-MEL-28; SK-MEL-28, read-out: percent growth inhibition): 98.3%
